From patent publication US12157741B2, “Macrocyclic inhibitors of DYRK1A” (DANA-FARBER CANCER INSTITUTE, INC., priority 2018, dated 2024)
Where two headings read alike, the source gives them in different places.

Key:
various enzymes [1] = biological target: various enzymes (Homo sapiens, UniProt O14578); details: CIT; 1 uM
Experimental: (§1) Ambit profiling from Eurofins (formerly Discoverx) was conducted in accordance with the manufacturer's instructions.

various enzymes [2] = biological target: T1, various enzymes (Homo sapiens, UniProt O60285); details: ARK5; 1 uM
T1 sequence (O60285 1-661): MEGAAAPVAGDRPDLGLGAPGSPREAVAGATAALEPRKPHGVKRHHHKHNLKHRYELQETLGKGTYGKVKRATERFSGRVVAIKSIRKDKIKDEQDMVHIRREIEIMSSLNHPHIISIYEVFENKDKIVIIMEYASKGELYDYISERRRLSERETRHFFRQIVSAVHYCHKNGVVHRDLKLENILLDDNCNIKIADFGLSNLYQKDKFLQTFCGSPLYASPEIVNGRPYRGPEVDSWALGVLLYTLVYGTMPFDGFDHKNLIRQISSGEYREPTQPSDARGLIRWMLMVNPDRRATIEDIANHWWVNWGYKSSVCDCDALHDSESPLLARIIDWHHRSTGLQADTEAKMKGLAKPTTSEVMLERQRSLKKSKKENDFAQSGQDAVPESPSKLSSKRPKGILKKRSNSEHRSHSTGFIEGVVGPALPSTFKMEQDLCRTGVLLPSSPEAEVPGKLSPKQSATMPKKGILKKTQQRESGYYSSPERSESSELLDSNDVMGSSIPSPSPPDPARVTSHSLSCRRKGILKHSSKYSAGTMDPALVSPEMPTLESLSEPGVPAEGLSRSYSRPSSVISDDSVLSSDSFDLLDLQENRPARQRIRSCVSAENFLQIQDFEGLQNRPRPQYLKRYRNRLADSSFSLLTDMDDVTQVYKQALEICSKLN
Experimental: as §1

various enzymes [3] = biological target: various enzymes (Homo sapiens, UniProt P00533, G719S)
Experimental: as §1

various enzymes [4] = biological target: various enzymes (Homo sapiens, UniProt P00533, L858R/T790M)
Experimental: as §1

various enzymes [5] = biological target: various enzymes (Homo sapiens, UniProt P00533, T790M)
Experimental: as §1

various enzymes [6] = biological target: various enzymes (Homo sapiens, UniProt P41240); details: CSK; 1 uM
Experimental: as §1

various enzymes [7] = biological target: various enzymes (Homo sapiens, UniProt P49336); details: CDK8; 1 uM
Experimental: as §1

various enzymes [8] = biological target: various enzymes (Homo sapiens, UniProt P78368); details: CSNK1G2; 1 uM
Experimental: as §1

various enzymes [9] = biological target: various enzymes (Homo sapiens, UniProt Q14004); details: CDC2L5; 1 uM
Experimental: as §1

various enzymes [10] = biological target: various enzymes (Homo sapiens, UniProt Q9H4A3); details: WNK1; 1 uM
Experimental: as §1

various enzymes [11] = biological target: T2, various enzymes (Homo sapiens, UniProt Q9NRM7); details: LATS2; 1 uM
T2 sequence (Q9NRM7 1-1088): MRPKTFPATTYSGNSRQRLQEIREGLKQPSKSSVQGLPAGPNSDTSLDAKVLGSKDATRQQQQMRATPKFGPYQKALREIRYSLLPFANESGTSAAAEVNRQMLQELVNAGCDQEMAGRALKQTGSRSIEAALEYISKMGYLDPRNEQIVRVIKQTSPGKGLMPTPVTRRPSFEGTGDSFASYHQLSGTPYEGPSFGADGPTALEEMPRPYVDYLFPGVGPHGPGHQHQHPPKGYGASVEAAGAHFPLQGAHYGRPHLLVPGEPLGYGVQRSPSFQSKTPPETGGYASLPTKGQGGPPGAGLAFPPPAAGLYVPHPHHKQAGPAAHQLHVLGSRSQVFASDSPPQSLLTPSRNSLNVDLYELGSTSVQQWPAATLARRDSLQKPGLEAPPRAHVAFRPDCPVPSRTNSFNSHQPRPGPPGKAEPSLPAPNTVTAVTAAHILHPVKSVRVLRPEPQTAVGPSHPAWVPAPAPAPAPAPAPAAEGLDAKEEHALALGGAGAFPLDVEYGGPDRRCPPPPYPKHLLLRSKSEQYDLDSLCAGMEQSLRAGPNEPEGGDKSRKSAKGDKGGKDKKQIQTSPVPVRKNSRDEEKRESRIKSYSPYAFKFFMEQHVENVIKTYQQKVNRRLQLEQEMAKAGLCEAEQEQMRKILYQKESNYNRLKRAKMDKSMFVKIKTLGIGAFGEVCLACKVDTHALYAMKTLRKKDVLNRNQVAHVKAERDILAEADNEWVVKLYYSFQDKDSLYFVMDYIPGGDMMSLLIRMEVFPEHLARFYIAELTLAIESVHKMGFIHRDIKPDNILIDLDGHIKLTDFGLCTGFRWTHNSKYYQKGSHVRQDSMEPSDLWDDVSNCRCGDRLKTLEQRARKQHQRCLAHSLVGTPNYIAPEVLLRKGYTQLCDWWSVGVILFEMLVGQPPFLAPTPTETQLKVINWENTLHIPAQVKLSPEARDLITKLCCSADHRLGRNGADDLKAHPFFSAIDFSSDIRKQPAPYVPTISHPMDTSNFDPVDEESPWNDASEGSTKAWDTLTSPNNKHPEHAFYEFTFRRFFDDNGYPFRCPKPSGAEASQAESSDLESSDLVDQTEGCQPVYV
Experimental: as §1

various enzymes [12] = biological target: T3, various enzymes (Homo sapiens, UniProt Q9NWZ3); details: IRAK4; 1 uM
T3 sequence (Q9NWZ3 1-460): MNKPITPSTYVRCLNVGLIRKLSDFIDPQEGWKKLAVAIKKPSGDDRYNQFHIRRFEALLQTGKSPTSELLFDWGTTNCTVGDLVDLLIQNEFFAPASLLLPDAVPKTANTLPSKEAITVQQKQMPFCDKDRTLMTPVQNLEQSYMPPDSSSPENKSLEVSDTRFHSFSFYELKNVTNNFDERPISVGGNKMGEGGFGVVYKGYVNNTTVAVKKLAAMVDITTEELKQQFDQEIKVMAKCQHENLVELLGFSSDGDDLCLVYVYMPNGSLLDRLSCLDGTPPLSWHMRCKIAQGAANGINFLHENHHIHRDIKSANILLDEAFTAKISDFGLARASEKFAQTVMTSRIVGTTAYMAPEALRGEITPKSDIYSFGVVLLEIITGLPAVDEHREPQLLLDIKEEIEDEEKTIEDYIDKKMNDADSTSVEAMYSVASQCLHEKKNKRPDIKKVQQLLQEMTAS
Experimental: as §1

various enzymes [13] = biological target: various enzymes (Homo sapiens, UniProt Q9UK32); details: 1 uM
Chain of various enzymes (Homo sapiens, UniProt Q9UK32) (Q9UK32 whole entry): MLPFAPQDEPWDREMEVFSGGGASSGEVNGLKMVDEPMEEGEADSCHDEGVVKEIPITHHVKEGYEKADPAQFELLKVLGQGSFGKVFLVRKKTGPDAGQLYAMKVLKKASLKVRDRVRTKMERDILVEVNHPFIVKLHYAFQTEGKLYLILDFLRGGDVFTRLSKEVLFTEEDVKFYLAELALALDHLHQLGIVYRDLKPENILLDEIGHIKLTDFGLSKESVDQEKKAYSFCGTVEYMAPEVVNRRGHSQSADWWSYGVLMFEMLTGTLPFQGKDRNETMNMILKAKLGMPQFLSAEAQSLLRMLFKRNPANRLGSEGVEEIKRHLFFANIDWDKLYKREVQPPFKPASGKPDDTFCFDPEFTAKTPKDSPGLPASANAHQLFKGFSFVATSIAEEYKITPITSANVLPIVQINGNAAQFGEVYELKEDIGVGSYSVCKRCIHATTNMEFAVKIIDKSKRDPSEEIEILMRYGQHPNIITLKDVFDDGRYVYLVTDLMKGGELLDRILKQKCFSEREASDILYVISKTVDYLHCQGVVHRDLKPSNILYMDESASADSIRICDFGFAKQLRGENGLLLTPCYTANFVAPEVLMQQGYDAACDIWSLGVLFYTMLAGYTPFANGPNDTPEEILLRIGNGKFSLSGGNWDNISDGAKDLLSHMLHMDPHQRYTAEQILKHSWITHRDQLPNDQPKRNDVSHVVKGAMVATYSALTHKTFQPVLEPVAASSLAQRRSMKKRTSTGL
Experimental: as §1

Chain of various enzymes (Homo sapiens, UniProt P49336) (P49336 whole entry): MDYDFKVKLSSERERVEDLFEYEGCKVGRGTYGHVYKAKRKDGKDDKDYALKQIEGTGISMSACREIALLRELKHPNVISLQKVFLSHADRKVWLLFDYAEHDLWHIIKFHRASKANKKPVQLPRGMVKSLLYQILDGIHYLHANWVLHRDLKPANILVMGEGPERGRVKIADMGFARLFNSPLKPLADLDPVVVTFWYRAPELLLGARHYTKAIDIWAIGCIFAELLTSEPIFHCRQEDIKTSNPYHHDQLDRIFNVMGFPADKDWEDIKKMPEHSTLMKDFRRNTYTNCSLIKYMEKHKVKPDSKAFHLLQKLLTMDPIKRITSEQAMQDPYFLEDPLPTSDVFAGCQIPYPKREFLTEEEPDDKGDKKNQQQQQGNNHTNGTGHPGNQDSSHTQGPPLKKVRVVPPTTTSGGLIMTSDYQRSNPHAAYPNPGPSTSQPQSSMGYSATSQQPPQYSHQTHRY
Chain of various enzymes (Homo sapiens, UniProt O14578) (O14578 whole entry): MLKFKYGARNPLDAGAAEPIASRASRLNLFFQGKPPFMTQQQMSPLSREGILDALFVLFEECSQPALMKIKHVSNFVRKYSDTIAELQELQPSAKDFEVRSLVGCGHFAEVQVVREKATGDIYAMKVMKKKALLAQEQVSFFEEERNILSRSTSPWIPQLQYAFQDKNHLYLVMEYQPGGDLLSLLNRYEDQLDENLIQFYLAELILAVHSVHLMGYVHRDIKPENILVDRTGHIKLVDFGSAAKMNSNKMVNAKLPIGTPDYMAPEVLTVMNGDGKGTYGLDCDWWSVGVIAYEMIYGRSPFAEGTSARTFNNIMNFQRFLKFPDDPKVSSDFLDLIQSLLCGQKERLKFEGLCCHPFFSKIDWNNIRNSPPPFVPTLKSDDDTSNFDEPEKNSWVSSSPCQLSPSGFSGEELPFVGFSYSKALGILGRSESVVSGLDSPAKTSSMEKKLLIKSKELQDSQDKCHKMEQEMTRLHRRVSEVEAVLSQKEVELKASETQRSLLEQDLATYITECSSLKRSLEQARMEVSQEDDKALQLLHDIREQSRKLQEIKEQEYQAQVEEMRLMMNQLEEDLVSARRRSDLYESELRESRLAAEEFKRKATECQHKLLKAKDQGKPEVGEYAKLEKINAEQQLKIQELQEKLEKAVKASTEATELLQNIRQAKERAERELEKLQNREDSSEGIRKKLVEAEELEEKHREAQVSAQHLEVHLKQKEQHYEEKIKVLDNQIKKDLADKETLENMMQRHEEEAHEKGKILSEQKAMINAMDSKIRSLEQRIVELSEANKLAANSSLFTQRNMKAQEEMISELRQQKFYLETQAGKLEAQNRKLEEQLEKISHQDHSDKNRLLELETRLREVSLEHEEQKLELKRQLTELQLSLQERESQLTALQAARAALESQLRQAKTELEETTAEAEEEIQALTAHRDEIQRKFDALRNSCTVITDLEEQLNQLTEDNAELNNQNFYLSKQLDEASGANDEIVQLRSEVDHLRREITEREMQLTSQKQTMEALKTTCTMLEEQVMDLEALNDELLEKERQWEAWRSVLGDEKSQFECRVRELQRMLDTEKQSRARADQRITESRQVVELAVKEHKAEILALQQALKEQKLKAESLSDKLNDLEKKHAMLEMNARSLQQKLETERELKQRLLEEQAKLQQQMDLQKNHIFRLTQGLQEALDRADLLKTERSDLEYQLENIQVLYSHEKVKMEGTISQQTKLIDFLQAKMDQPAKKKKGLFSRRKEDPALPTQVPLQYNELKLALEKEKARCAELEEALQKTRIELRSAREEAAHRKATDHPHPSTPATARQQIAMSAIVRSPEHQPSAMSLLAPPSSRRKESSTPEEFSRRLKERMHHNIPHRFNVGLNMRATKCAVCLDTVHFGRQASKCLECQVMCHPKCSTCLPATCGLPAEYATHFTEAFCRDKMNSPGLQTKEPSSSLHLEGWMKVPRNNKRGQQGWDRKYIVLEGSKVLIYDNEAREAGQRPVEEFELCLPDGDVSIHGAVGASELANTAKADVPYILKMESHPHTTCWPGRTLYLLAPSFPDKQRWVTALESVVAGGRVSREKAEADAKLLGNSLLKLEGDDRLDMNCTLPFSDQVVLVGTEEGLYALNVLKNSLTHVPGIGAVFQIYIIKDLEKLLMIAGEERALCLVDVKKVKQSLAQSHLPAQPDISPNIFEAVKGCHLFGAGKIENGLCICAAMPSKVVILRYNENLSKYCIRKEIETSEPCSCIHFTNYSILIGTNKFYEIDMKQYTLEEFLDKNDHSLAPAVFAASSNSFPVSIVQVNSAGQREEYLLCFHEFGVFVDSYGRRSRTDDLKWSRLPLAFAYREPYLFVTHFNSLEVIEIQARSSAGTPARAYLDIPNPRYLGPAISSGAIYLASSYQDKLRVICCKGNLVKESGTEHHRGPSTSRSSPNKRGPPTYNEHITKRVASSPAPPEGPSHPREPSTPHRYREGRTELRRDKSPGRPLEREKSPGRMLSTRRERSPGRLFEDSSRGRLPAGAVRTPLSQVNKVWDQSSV
Chain of various enzymes (Homo sapiens, UniProt P78368) (P78368 whole entry): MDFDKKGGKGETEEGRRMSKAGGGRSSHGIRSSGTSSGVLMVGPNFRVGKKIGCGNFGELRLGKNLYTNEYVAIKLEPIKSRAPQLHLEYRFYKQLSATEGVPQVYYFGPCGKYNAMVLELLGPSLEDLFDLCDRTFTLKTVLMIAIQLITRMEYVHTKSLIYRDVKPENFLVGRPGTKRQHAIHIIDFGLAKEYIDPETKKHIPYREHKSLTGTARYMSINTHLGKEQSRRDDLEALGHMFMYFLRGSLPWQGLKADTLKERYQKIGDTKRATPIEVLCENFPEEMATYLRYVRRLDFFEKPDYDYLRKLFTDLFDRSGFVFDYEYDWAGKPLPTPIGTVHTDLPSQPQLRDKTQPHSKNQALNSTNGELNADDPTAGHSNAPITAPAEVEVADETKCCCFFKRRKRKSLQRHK
Chain of various enzymes (Homo sapiens, UniProt P41240) (P41240 whole entry): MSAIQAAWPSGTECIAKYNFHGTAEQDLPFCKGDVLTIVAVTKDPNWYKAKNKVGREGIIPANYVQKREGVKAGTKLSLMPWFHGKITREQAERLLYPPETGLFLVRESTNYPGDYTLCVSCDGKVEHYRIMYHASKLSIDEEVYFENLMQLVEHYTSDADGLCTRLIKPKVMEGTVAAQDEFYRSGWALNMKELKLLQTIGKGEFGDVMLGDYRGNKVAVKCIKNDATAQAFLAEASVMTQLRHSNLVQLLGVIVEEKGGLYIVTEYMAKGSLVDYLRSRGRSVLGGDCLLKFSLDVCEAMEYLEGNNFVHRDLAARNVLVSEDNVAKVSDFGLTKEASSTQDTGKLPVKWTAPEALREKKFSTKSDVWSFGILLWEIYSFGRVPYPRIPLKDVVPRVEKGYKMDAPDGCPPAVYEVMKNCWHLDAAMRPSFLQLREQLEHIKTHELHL

In the case of `CN1Cc2nn(C)cc2-c2cnc3[nH]cc(c3c2)-c2cnn(c2)CCCC1=O` [Compound 41, (Z)-31,5-dimethyl-11H,21H,31H-5-aza-2(3,5)-pyrrolo[2,3-b]pyridina-1(4,1),3(4,3)-dipyrazolacyclononaphan-6-one], the Ambit profiling (various enzymes [1]) is reported as 99, the Ambit profiling (various enzymes [2]) is reported as 8.9 and the Ambit profiling (various enzymes [3]; EGFR(G719S), 1 uM) is reported as 100. For the same molecule, the Ambit profiling (various enzymes [4]; EGFR(L858R, T790M), 1 uM) was 14, the Ambit profiling (various enzymes [5]; EGFR(T790M), 1 uM) was 41 and the Ambit profiling (various enzymes [6]) was 63. The Ambit profiling (various enzymes [7]) was 100, the Ambit profiling (various enzymes [8]) was 100 and the Ambit profiling (various enzymes [9]) was 100. It also gave an Ambit profiling (various enzymes [10]) of 95, an Ambit profiling (various enzymes [11]) of 63 and an Ambit profiling (various enzymes [12]) of 12. For the same molecule, the Ambit profiling (various enzymes [13]; RSK4(Kin.Dom.1-N-terminal)) was 5.6 and the Ambit profiling (various enzymes [13]; RSK4(Kin.Dom.2-C-terminal)) was 63.
`CN1Cc2nn(C)c(C#N)c2-c2cnc3[nH]cc(c3c2)-c2cn(nc2C(F)(F)F)CCCC1=O` [Compound 48, (Z)-31,5-dimethyl-6-oxo-13-(trifluoromethyl)-11H,21H,31H-5-aza-2(3,5)-pyrrolo[2,3-b]pyridina-1(4,1),3(4,3)-dipyrazolacyclononaphane-35-carbonitrile] was tested, and the Ambit profiling (various enzymes [1]) was 74, the Ambit profiling (various enzymes [2]) was 100 and the Ambit profiling (various enzymes [3]) was 71. The Ambit profiling (various enzymes [4]) was 50, the Ambit profiling (various enzymes [5]) was 80 and the Ambit profiling (various enzymes [6]) was 95. It also gave an Ambit profiling (various enzymes [7]) of 100, an Ambit profiling (various enzymes [8]) of 100 and an Ambit profiling (various enzymes [9]) of 87. For the same molecule, the Ambit profiling (various enzymes [10]) was 100, the Ambit profiling (various enzymes [11]) was 100 and the Ambit profiling (various enzymes [12]) was 100. For the same molecule, the Ambit profiling (various enzymes [13]; RSK4(Kin.Dom.1-N-terminal)) was 7.5 and the Ambit profiling (various enzymes [13]; RSK4(Kin.Dom.2-C-terminal)) was 69.
